From patent US10758534B2 (Vertex Pharmaceuticals Incorporated, priority 2014, dated 2020) come the findings set out here.

The first experiment deals with T1, F508del (Homo sapiens, UniProt P13569, DEL508-508).
T1 construct: expressed in transfected cells
T1 sequence (P13569 with tags, fused parts or gaps DEL508-508): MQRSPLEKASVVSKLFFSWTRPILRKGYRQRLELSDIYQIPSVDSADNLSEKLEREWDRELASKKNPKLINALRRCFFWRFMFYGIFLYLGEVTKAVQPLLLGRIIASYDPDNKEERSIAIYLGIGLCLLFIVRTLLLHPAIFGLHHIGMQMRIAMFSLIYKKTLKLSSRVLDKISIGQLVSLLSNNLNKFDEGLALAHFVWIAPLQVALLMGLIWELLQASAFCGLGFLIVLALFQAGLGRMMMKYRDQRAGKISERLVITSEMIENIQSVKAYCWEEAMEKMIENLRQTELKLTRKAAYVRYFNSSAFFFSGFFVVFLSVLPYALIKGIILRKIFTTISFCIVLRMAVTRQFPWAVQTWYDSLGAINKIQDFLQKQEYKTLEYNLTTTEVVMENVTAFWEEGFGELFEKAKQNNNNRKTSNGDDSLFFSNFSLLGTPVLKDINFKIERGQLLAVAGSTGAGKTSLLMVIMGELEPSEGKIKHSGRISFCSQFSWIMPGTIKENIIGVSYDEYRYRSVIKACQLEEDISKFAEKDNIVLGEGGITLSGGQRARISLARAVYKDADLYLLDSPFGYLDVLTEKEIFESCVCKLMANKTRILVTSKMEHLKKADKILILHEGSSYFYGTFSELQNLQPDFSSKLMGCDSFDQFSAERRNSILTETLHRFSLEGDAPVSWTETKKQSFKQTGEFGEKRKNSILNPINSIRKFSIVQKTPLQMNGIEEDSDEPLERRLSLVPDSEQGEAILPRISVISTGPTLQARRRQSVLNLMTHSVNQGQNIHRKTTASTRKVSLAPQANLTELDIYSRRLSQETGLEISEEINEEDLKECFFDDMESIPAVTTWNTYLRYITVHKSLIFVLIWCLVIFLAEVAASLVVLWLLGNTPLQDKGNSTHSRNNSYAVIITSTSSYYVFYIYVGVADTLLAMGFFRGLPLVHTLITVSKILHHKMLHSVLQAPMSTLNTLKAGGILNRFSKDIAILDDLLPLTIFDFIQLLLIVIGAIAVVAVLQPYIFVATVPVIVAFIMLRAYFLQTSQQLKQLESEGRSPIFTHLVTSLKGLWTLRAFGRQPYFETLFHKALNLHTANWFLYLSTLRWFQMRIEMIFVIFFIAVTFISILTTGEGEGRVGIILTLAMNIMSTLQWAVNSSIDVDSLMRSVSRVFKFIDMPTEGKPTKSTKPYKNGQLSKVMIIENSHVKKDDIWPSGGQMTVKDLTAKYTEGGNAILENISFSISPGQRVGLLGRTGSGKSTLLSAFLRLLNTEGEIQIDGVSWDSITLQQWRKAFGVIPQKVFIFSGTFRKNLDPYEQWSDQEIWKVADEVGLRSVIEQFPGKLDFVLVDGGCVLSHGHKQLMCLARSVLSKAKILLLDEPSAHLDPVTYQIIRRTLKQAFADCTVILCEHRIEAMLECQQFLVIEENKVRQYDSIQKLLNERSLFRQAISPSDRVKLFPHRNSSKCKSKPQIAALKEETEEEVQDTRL
Put plainly: Protocol 2: FRET membrane potential optical assay (VIPR), identification of correction compounds. The class given is cell-based. Conditions: F508del CFTR modulator activity; compounds of Table 1; read-out: EC30. The procedure, abridged: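 Mouse NIH3T3 cells, stable F508del; cpd 16 hrs, 37° C., serum-free; pos ctrl 27° C. 16 hrs. Rinse in Krebs Ringers, dye load, then add 10 μM forskolin + 20 μM genistein with Cl^−-free (gluconate) medium; depolarization by FRET voltage dyes.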
On to `CC1CN(c2ncccc2C(=O)NS(=O)(=O)c2cccc(Nc3ccccc3C(F)(F)F)n2)C(C)(C)C1` (centres unmarked) [Compound 2397, N—[[6-[2-(trifluoromethyl)anilino]-2-pyridyl]sulfonyl]-2-(2,2,4-trimethylpyrrolidin-1-yl)pyridine-3-carboxamide], for which the 30% effect concentration (EC30) (commonly the concentration needed for an effect of 30%) was less than 3 µM.
As to `C[C@@H]1CN(c2nc(-c3cccc(F)c3)ccc2C(=O)NS(=O)(=O)c2cccc(N)n2)C(C)(C)C1` [Compound 2566, N-[(6-amino-2-pyridyl)sulfonyl]-6-(3-fluorophenyl)-2-[(4S)-2,2,4-trimethylpyrrolidin-1-yl]pyridine-3-carboxamide], the 30% effect concentration (EC30) was less than 3 µM.
On the same count and under the same terms, next, `C[C@@H]1CN(c2nc(-n3ccc(OCC(C)(C)C)n3)ccc2C(=O)NS(=O)(=O)c2cccnc2N2CCCCC2)C(C)(C)C1` [Compound 2670, 6-[3-(2,2-dimethylpropoxy)pyrazol-1-yl]-N-[[2-(1-piperidyl)-3-pyridyl]sulfonyl]-2-[(4S)-2,2,4-trimethylpyrrolidin-1-yl]pyridine-3-carboxamide]: less than 3 µM; `CC1CN(c2ncccc2C(=O)NS(=O)(=O)c2cccc(NCc3cccs3)n2)C(C)(C)C1` (centres unmarked) [Compound 2004, N—[[6-(2-thienylmethylamino)-2-pyridyl]sulfonyl]-2-(2,2,4-trimethylpyrrolidin-1-yl)pyridine-3-carboxamide]: less than 3 µM; `COC(=O)c1ccc(Nc2cccc(S(=O)(=O)NC(=O)c3cccnc3N3CC(C)CC3(C)C)n2)nc1` (centres unmarked) [Compound 2140, methyl 6-[[6-[[2-(2,2,4-trimethylpyrrolidin-1-yl)pyridine-3-carbonyl]sulfamoyl]-2-pyridyl]amino]pyridine-3-carboxylate]: 3 to 10 µM.
Regarding `COc1ccccc1Oc1cccc(S(=O)(=O)NC(=O)c2cccnc2N2CC(C)CC2(C)C)n1` (centres unmarked) [Compound 2637, N—[[6-(2-methoxyphenoxy)-2-pyridyl]sulfonyl]-2-(2,2,4-trimethylpyrrolidin-1-yl)pyridine-3-carboxamide], the concentration for an effect of 30% (EC30) was less than 3 µM.
For `Cc1cc(-c2ccc(C(=O)NS(=O)(=O)N3CC[C@H](N)C3)c(N3C[C@@H](C)CC3(C)C)n2)ccc1F` [Compound 2472, N-[(3S)-3-aminopyrrolidin-1-yl]sulfonyl-6-(4-fluoro-3-methyl-phenyl)-2-[(4S)-2,2,4-trimethylpyrrolidin-1-yl]pyridine-3-carboxamide], the EC30 was 3 to 10 µM.
As to `CC(C)COc1cc(F)cc(-c2cc(N3C[C@@H](C)CC3(C)C)c(C(=O)NS(=O)(=O)c3cccc(N)n3)cn2)c1` [Compound 2679, N-[(6-amino-2-pyridyl)sulfonyl]-6-(3-fluoro-5-isobutoxy-phenyl)-4-[(4S)-2,2,4-trimethylpyrrolidin-1-yl]pyridine-3-carboxamide], the EC30 lay in the range of 3 to 10 µM.
The same measure, in the same setting: next, `CCCCN(C)c1cccc(S(=O)(=O)NC(=O)c2cccnc2N2CC(C)CC2(C)C)n1` (centres unmarked) [Compound 2307, N—[[6-[butyl(methyl)amino]-2-pyridyl]sulfonyl]-2-(2,2,4-trimethylpyrrolidin-1-yl)pyridine-3-carboxamide]: less than 3 µM; `CC(C)COc1cc(F)cc(-c2ncc(C(=O)NS(=O)(=O)c3cccc(N)n3)c(N3C[C@@H](C)CC3(C)C)n2)c1` [Compound 2121, N-[(6-amino-2-pyridyl)sulfonyl]-2-(3-fluoro-5-isobutoxy-phenyl)-4-[(4S)-2,2,4-trimethylpyrrolidin-1-yl]pyrimidine-5-carboxamide]: less than 3 µM; `CC(C)(C)c1ccc(C(=O)NS(=O)(=O)c2cccc(N)n2)c(N2CCC(C3CC3)C2(C)C)n1` (single isomer, unassigned) [Compound 2022, N-[(6-amino-2-pyridyl)sulfonyl]-6-tert-butyl-2-(3-cyclopropyl-2,2-dimethyl-pyrrolidin-1-yl)pyridine-3-carboxamide]: less than 3 µM.
Still for that read-out and setting: next, `CC1CN(c2ncccc2C(=O)NS(=O)(=O)c2cccc(Oc3cccc4cccnc34)n2)C(C)(C)C1` (centres unmarked) [Compound 2333, N—[[6-(8-quinolyloxy)-2-pyridyl]sulfonyl]-2-(2,2,4-trimethylpyrrolidin-1-yl)pyridine-3-carboxamide]: 3 to 10 µM.
On the same count and under the same terms, next, `CC1CN(c2ncc(C3=CCC(C(F)(F)F)CC3)cc2C(=O)NS(=O)(=O)c2cccc(N)n2)C(C)(C)C1` (centres unmarked) [Compound 2510, N-[(6-amino-2-pyridyl)sulfonyl]-5-[4-(trifluoromethyl)cyclohexen-1-yl]-2-(2,2,4-trimethylpyrrolidin-1-yl)pyridine-3-carboxamide]: less than 3 µM; `CC1CCCN(c2cccc(S(=O)(=O)NC(=O)c3cccnc3N3CC(C)CC3(C)C)n2)C1` (centres unmarked) [Compound 2030, N—[[6-(3-methyl-1-piperidyl)-2-pyridyl]sulfonyl]-2-(2,2,4-trimethylpyrrolidin-1-yl)pyridine-3-carboxamide]: less than 3 µM; `C[C@@H]1CN(c2nc(-c3ccc4c(c3)OCCO4)ccc2C(=O)NS(=O)(=O)c2ccc[nH]c2=O)C(C)(C)C1` [Compound 2516, 6-(2,3-dihydro-1,4-benzodioxin-6-yl)-N-[(2-oxo-1H-pyridin-3-yl)sulfonyl]-2-[(4S)-2,2,4-trimethylpyrrolidin-1-yl]pyridine-3-carboxamide]: 3 to 10 µM.

The same experiment, now with this note: Table 3; compounds of Table 1 as modulators of CFTR activity; protocol not stated.
Turning to `Cc1cc(C)c(Oc2nc(-c3ccc(F)cc3)ccc2C(=O)NS(=O)(=O)c2cccc(N)n2)c(C)c1` [Compound 93, N-[(6-amino-2-pyridyl)sulfonyl]-6-(4-fluorophenyl)-2-(2,4,6-trimethylphenoxy)pyridine-3-carboxamide], the concentration for an effect of 30% (EC30) result is reported as “+++ (“+++” means <3 uM)”.
Still for that read-out and setting: with `Cc1cc(C)c(Cn2c(C(=O)NS(=O)(=O)c3ccccc3)cc3ccc(F)cc32)c(C)c1` [Compound 212, N-(benzenesulfonyl)-6-fluoro-1-[(2,4,6-trimethylphenyl)methyl]indole-2-carboxamide] the entry was “+++ (“+++” means <3 uM)”.
For the compound `CCOc1ccc(-c2ccc(C(=O)NS(=O)(=O)c3nccnc3N)c(Oc3ccc(C)cc3C)n2)cc1` [Compound 434, N-(3-aminopyrazin-2-yl)sulfonyl-2-(2,4-dimethylphenoxy)-6-(4-ethoxyphenyl)pyridine-3-carboxamide], the EC30 result is “+++ (“+++” means <3 uM)”.
Turning to `COc1ccccc1S(=O)(=O)NC(=O)C1c2ccccc2CN1Cc1c(C)cc(C)cc1C` (centres unmarked) [Compound 79, N-(2-methoxyphenyl)sulfonyl-2-[(2,4,6-trimethylphenyl)methyl]isoindoline-1-carboxamide], the 30% effect concentration (EC30) result is “++ (“++” means between 3 uM and 10 uM)”.
The same measure, in the same setting: next, `Cc1cc(C)c(Oc2nc(C(C)(C)C)ncc2C(=O)NS(=O)(=O)c2cccc(N)c2)c(C)c1` [Compound 68, N-(3-aminophenyl)sulfonyl-2-tert-butyl-4-(2,4,6-trimethylphenoxy)pyrimidine-5-carboxamide]: “+++ (“+++” means <3 uM)”.
Take `CC(C)COc1cc(F)cc(-c2ccc(C(=O)NS(=O)(=O)c3cccc(N)n3)c(N3[C@H](C)CC[C@H]3C)n2)c1` [Compound 751, N-[(6-amino-2-pyridyl)sulfonyl]-2-[(2R,5R)-2,5-dimethylpyrrolidin-1-yl]-6-(3-fluoro-5-isobutoxy-phenyl)pyridine-3-carboxamide]: the EC30 result is “+++ (“+++” means <3 uM)”.
On the same count and under the same terms, next, `Cc1cc(C)c(CN2CCCc3ccccc3C2C(=O)NS(=O)(=O)c2cccc(N)n2)c(C)c1` (centres unmarked) [Compound 696, N-[(6-amino-2-pyridyl)sulfonyl]-2-[(2,4,6-trimethylphenyl)methyl]-1,3,4,5-tetrahydro-2-benzazepine-1-carboxamide]: “+++ (“+++” means <3 uM)”.
For `C#CC1CCCN(c2nc(-c3cc(F)cc(OCC(C)C)c3)ccc2C(=O)NS(=O)(=O)c2ccn[nH]2)C1` (centres unmarked) [Compound 431, 2-(3-ethynyl-1-piperidyl)-6-(3-fluoro-5-isobutoxy-phenyl)-N-(1H-pyrazol-5-ylsulfonyl)pyridine-3-carboxamide], the concentration for an effect of 30% (EC30) entry was “++ (“++” means between 3 uM and 10 uM)”.
As to `CC(C)COc1cc(F)cc(-c2ccc(C(=O)NS(=O)(=O)c3cccc(N)n3)c(N3CCCC3c3ccccn3)n2)c1` (centres unmarked) [Compound 659, N-[(6-amino-2-pyridyl)sulfonyl]-6-(3-fluoro-5-isobutoxy-phenyl)-2-[2-(2-pyridyl)pyrrolidin-1-yl]pyridine-3-carboxamide], the concentration for an effect of 30% (EC30) result was “++ (“++” means between 3 uM and 10 uM)”.
Regarding `Cc1ccc(Oc2nc(C(C)(C)C)ccc2C(=O)NS(=O)(=O)c2ccc[nH]c2=O)c(C)c1` [Compound 55, 6-tert-butyl-2-(2,4-dimethylphenoxy)-N-[(2-oxo-1H-pyridin-3-yl)sulfonyl]pyridine-3-carboxamide], the concentration for an effect of 30% (EC30) entry was “++ (“++” means between 3 uM and 10 uM)”.
Same read-out and setting: next, `Cc1cc(C)c(Oc2nc3c(cc2C(=O)NS(=O)(=O)c2cccc(N)n2)CCCC3)c(C)c1` [Compound 285, N-[(6-amino-2-pyridyl)sulfonyl]-2-(2,4,6-trimethylphenoxy)-5,6,7,8-tetrahydroquinoline-3-carboxamide]: “+++ (“+++” means <3 uM)”; `CC(C)COc1cc(F)cc(-c2ccc(C(=O)NS(=O)(=O)c3ccn[nH]3)c(N3CCCC(C)C3)n2)c1` (centres unmarked) [Compound 756, 6-(3-fluoro-5-isobutoxy-phenyl)-2-(3-methyl-1-piperidyl)-N-(1H-pyrazol-5-ylsulfonyl)pyridine-3-carboxamide]: “+++ (“+++” means <3 uM)”; `Cc1cc(C)c(Oc2nc3ccccc3cc2C(=O)NS(=O)(=O)c2ccncc2)c(C)c1` [Compound 240, N-(4-pyridylsulfonyl)-2-(2,4,6-trimethylphenoxy)quinoline-3-carboxamide]: “++ (“++” means between 3 uM and 10 uM)”.
On the same count and under the same terms, with `Cc1ccc(-c2nc(C(C)(C)C)ccc2C(=O)NS(=O)(=O)c2ccc(N)nc2)cc1` [Compound 702, N-[(6-amino-3-pyridyl)sulfonyl]-6-tert-butyl-2-(p-tolyl)pyridine-3-carboxamide] the entry was “++ (“++” means between 3 uM and 10 uM)”.
